The results in this text go back to US20150118229A1, “JAK1 SELECTIVE INHIBITOR AND USES THEREOF” (ABBVIE INC., priority 2013, published 2015).

Data set [1] is described as follows: Definitive embryofetal development toxicity study in rabbits. The settings on record: rabbit. It is filed as in vivo, New Zealand White rabbits. An excerpt:
One additional group of 20 time-mated females served as the control and received the vehicle, 0.2% hydroxypropyl methylcellulose (HPMC, high viscosity) in deionized water.

A short description of data set [2]: Metabolic stability in hepatocytes, human. It is filed as in vitro ADME. As to conditions: read-out: intrinsic clearance in hepatocytes (converted).
For data set [3] the following is noted: rat, in vivo.
Protocol: The 4-week rat study was conducted at dose levels of 0, 10, 50, 100, and 200 mg/kg/day by daily oral administration (gavage). […] The cause of death was not determined for animals that died.
Data set [4] has as its target CYP2B6 (Homo sapiens, UniProt P20813). Kind of data set: CYP inhibition in human liver microsomes, CYP2B6.

The structures appear in SMILES notation. Entries after “also recorded” stand apart in the source; their conditions may differ.

Chain of CYP2B6 (P20813 whole entry): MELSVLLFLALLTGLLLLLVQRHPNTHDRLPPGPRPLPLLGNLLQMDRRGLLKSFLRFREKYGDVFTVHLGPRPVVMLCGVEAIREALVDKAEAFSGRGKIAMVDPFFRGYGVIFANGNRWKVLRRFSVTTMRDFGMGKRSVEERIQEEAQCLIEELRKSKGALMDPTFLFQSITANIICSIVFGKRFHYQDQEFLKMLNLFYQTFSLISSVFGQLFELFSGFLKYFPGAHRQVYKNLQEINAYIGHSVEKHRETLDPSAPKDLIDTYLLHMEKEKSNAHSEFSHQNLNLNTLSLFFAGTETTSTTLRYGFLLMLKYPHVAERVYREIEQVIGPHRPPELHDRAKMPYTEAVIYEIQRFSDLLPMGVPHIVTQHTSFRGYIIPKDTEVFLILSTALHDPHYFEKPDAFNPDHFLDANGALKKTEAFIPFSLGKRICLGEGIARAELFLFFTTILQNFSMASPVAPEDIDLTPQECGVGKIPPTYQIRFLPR

Consider `CC[C@@H]1CN(C(=O)NCC(F)(F)F)C[C@@H]1c1cnc2cnc3[nH]ccc3n12` [Compound 1, (3S,4R)-3-ethyl-4-(3H-imidazo[1,2-a]pyrrolo[2,3-e]pyrazin-8-yl)-N-(2,2,2-trifluoroethyl)pyrrolidine-1-carboxamide], for which, in data set [1] (2.5 and 10 mg/kg/day), the “maternal and fetal examinations” value is “no Compound 1-related effects”. For the same compound, the NOEL entry in data set [1] (oral, GD 7-19) is given as “NOEL = 10 mg/kg/day”. Besides, the CLint scaled at 1 μM in data set [2] was 6.1 mL/min/kg. In addition, the “Adverse Findings” value in data set [3] (both, 4 weeks) is reported as 100: Kidneys-cortical tubular. In addition, the dose-limiting effects entry in data set [3] is given as “mortality”. In data set [3] (100 mg/kg/day), the “change in RBC counts compared to control means” value is reported as −13%; the “change in hematocrit compared to control means” value was −14%; the “increase in mean phosphorus (up to, vs control mean)” value is “+10%”. Also, the “time-dependent inhibition of CYP2B6” value in data set [4] (human liver microsomes) was “No obvious time-dependent inhibition”. Also, in data set [4] (up to 30 μM), the “inhibition of CYP2B6” value is “did not inhibit; also recorded: not an inhibitor”.
